Columns and labels:
[1] = tested on: normal NK cells expanded with K562-aAPC; assay: drug sensitivity score (DSS) (DSS units); higher = more sensitive; extreme values may be limits of the assay; conditions: 72 h; IL-2 2.5 ng/mL
Description: (§1)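 Drug sensitivity and resistance testing on K562-aAPC-expanded normal NK cells: 5 concentrations (10-fold steps over a 10,000-fold range), 72 h at 37 °C, viability by CellTiter-Glo normalised to DMSO and benzethonium chloride controls; DSS from the fitted curve.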

KHYG-1 (IL-2 2.5 ng/mL) [2] = assay: as above; conditions: 72 h
[3] = tested on: normal primary NK cells, pool 1 (3 donors) (IL-2 2.5 ng/mL); assay: as above; conditions: 72 h
NK-YS (IL-2 2.5 ng/mL) [4] = assay: as above; conditions: 72 h
[5] = tested on: normal primary NK cells, pool 3 (3 donors) (IL-2 2.5 ng/mL); assay: as above; conditions: 72 h
[6] = tested on: normal primary NK cells, pool 1 (3 donors), resting (IL-2 0 ng/mL); assay: as above; conditions: 72 h
SNK-6 (IL-2 2.5 ng/mL) [7] = assay: as above; conditions: 72 h
NK-92 (IL-2 2.5 ng/mL) [8] = assay: as above; conditions: 72 h
DERL-7 (IL-2 2.5 ng/mL) [9] = assay: as above; conditions: 72 h
KAI3 (IL-2 2.5 ng/mL) [10] = assay: as above; conditions: 72 h
[11] = tested on: normal primary NK cells, pool 2 (3 donors) (IL-2 2.5 ng/mL); assay: as above; conditions: 72 h
NKL (IL-2 2.5 ng/mL) [12] = assay: as above; conditions: 72 h
IMC-1 (IL-2 20 ng/mL) [13] = assay: as above; conditions: 72 h
YT (IL-2 2.5 ng/mL) [14] = assay: as above; conditions: 72 h
KHYG-1 (IL-2 2.5 ng/mL) [15] = assay: percent inhibition of viability; higher = more inhibition; conditions: 72 h
[16] = tested on: normal primary NK cells, pool 1 (3 donors) (IL-2 2.5 ng/mL); assay: as above; conditions: 72 h
NK-YS (IL-2 2.5 ng/mL) [17] = assay: as above; conditions: 72 h
[18] = tested on: normal primary NK cells, pool 3 (3 donors) (IL-2 2.5 ng/mL); assay: as above; conditions: 72 h
[19] = tested on: normal primary NK cells, pool 1 (3 donors), resting (IL-2 0 ng/mL); assay: as above; conditions: 72 h
SNK-6 (IL-2 2.5 ng/mL) [20] = assay: as above; conditions: 72 h
NK-92 (IL-2 2.5 ng/mL) [21] = assay: as above; conditions: 72 h
DERL-7 (IL-2 2.5 ng/mL) [22] = assay: as above; conditions: 72 h
KAI3 (IL-2 2.5 ng/mL) [23] = assay: as above; conditions: 72 h
[24] = tested on: normal primary NK cells, pool 2 (3 donors) (IL-2 2.5 ng/mL); assay: as above; conditions: 72 h
NKL (IL-2 2.5 ng/mL) [25] = assay: as above; conditions: 72 h
IMC-1 (IL-2 20 ng/mL) [26] = assay: as above; conditions: 72 h
YT (IL-2 2.5 ng/mL) [27] = assay: as above; conditions: 72 h
[28] = tested on: normal NK cells expanded with K562-aAPC; assay: as above; conditions: 72 h, IL-2 2.5 ng/mL
Description: as §1

O=[N+]([O-])c1ccc2c(c1)S(=O)(=O)C=C2 [Stattic] (max concentration tested 50000 nM)
Conditions | drug sensitivity score
DERL-7 (IL-2 2.5 ng/mL) [9] | 19.4
IMC-1 (IL-2 20 ng/mL) [13] | 4.71
KAI3 (IL-2 2.5 ng/mL) [10] | 19.9
KHYG-1 (IL-2 2.5 ng/mL) [2] | 17.5
NK-92 (IL-2 2.5 ng/mL) [8] | 17.3
NK-YS (IL-2 2.5 ng/mL) [4] | 9.96
NKL (IL-2 2.5 ng/mL) [12] | 11.8
SNK-6 (IL-2 2.5 ng/mL) [7] | 16.6
YT (IL-2 2.5 ng/mL) [14] | 17.3
[1] | 17.4
[3] | 19.9
[5] | 17.1
[6] | 19.4
[11] | 17.7

percent inhibition of viability [%]
Conditions | 5 nM | 50 nM | 500 nM | 5000 nM | 50000 nM
DERL-7 (IL-2 2.5 ng/mL) [22] | -5.69 | 0.09 | 8.66 | 100 | 100
IMC-1 (IL-2 20 ng/mL) [26] | -3.55 | -2.13 | -12.2 | -14.1 | 99.9
KAI3 (IL-2 2.5 ng/mL) [23] | -6.42 | 3 | 11.7 | 101 | 100
KHYG-1 (IL-2 2.5 ng/mL) [15] | -5.88 | -5.42 | -4.14 | 99.4 | 99.5
NK-92 (IL-2 2.5 ng/mL) [21] | -16.4 | -10.7 | -9.15 | 100 | 99.3
NK-YS (IL-2 2.5 ng/mL) [17] | -2.31 | -3.08 | -1.75 | 31.7 | 98.3
NKL (IL-2 2.5 ng/mL) [25] | -2.42 | -9.08 | -17.6 | 52.9 | 97.8
SNK-6 (IL-2 2.5 ng/mL) [20] | 4.25 | -11.5 | -24.7 | 100 | 100
YT (IL-2 2.5 ng/mL) [27] | -7.41 | -5.02 | -6.62 | 99.5 | 99.9
[16] | -14.2 | -14 | 11.9 | 98.5 | 100
[18] | -6.16 | -7.86 | -9.75 | 99.1 | 101
[19] | -24.1 | -39.5 | 15.7 | 93.9 | 100
[24] | -5.68 | 1.61 | 1.47 | 96.5 | 99.9
[28] | -4.23 | -7.77 | -7.3 | 100 | 100

COc1cc(C(=O)NC2CCN(C)CC2)c(F)cc1Nc1ncc2c(n1)N(C1CCCC1)CC(F)(F)C(=O)N2C [TAK-960] (max concentration tested 2500 nM)
Conditions | drug sensitivity score
DERL-7 (IL-2 2.5 ng/mL) [9] | 0.89
IMC-1 (IL-2 20 ng/mL) [13] | 0.63
KAI3 (IL-2 2.5 ng/mL) [10] | 0
KHYG-1 (IL-2 2.5 ng/mL) [2] | 0
NK-92 (IL-2 2.5 ng/mL) [8] | 0.18
NK-YS (IL-2 2.5 ng/mL) [4] | 0
NKL (IL-2 2.5 ng/mL) [12] | 0
SNK-6 (IL-2 2.5 ng/mL) [7] | 13
YT (IL-2 2.5 ng/mL) [14] | 0
[1] | 0
[3] | 0
[5] | 0
[6] | 0
[11] | 0.16

percent inhibition of viability [%]
Conditions | 0.25 nM | 2.5 nM | 25 nM | 250 nM | 2500 nM
DERL-7 (IL-2 2.5 ng/mL) [22] | -1.39 | -5.61 | -0.81 | -6.15 | -11.4
IMC-1 (IL-2 20 ng/mL) [26] | -4.4 | 4.01 | 9.33 | 8.23 | 11.8
KAI3 (IL-2 2.5 ng/mL) [23] | -8.99 | -1.96 | -2.51 | -1.54 | 2.64
KHYG-1 (IL-2 2.5 ng/mL) [15] | 0.04 | 3.31 | 3.4 | 2.48 | 6.51
NK-92 (IL-2 2.5 ng/mL) [21] | -8.09 | -7.71 | 9.2 | -1.64 | 15.2
NK-YS (IL-2 2.5 ng/mL) [17] | -3.49 | 1.57 | 0.97 | 0.32 | 6.84
NKL (IL-2 2.5 ng/mL) [25] | -17.8 | -2.17 | 0.04 | 4.31 | 2.51
SNK-6 (IL-2 2.5 ng/mL) [20] | 22.6 | 22 | 36.4 | 38 | 22.1
YT (IL-2 2.5 ng/mL) [27] | 1.09 | 0.71 | 8.79 | 0.43 | 6.32
[16] | 7.7 | -2.83 | -1.46 | -9 | 3.2
[18] | -10.9 | -5.87 | 7.99 | -6.67 | -0.88
[19] | 11.1 | -6.28 | -3.33 | -13.8 | -6.51
[24] | -10.9 | -4.09 | 10.7 | 0.25 | 13.6
[28] | -3.09 | 0.01 | 0.41 | 9.42 | 8.37

Nc1nc(NC2CC2)cc(-c2cccc(Cl)c2Cl)n1 [TH588] (max concentration tested 25000 nM)
Conditions | drug sensitivity score
DERL-7 (IL-2 2.5 ng/mL) [9] | 5.47
IMC-1 (IL-2 20 ng/mL) [13] | 6.5
KAI3 (IL-2 2.5 ng/mL) [10] | 8.66
KHYG-1 (IL-2 2.5 ng/mL) [2] | 12.6
NK-92 (IL-2 2.5 ng/mL) [8] | 14.2
NK-YS (IL-2 2.5 ng/mL) [4] | 13.8
NKL (IL-2 2.5 ng/mL) [12] | 12.1
SNK-6 (IL-2 2.5 ng/mL) [7] | 14.5
YT (IL-2 2.5 ng/mL) [14] | 12.3
[1] | 3.67
[3] | 1.81
[5] | 0.02
[6] | 2.68
[11] | 2.06

percent inhibition of viability [%]
Conditions | 2.5 nM | 25 nM | 250 nM | 2500 nM | 25000 nM
DERL-7 (IL-2 2.5 ng/mL) [22] | -0.31 | 1.28 | 1.11 | 0.06 | 97.7
IMC-1 (IL-2 20 ng/mL) [26] | -9.26 | 1.24 | 2.13 | 7.29 | 96.8
KAI3 (IL-2 2.5 ng/mL) [23] | 0.95 | -6.22 | 2.89 | 42 | 64.7
KHYG-1 (IL-2 2.5 ng/mL) [15] | -2.9 | -3.16 | 5.7 | 58.7 | 107
NK-92 (IL-2 2.5 ng/mL) [21] | -1.92 | -6.94 | 2.79 | 72.5 | 101
NK-YS (IL-2 2.5 ng/mL) [17] | 1.83 | -0.35 | 11.3 | 66.7 | 80.4
NKL (IL-2 2.5 ng/mL) [25] | -9.98 | -13.7 | 2.66 | 55.4 | 98.6
SNK-6 (IL-2 2.5 ng/mL) [20] | 0.31 | -17.3 | 9.99 | 71.7 | 81.9
YT (IL-2 2.5 ng/mL) [27] | -5.04 | -2.09 | 4.62 | 56.5 | 101
[16] | -0.99 | 16 | 3.84 | 5.63 | 25.9
[18] | -2.82 | 4 | 7.93 | 2.77 | 13.5
[19] | -2.99 | 16.5 | 4.87 | 14.2 | 27.3
[24] | -12 | 6.63 | 10.1 | 10.4 | 25.7
[28] | -9.36 | -5.78 | -3.43 | 4.8 | 54.4

Reference: the supplement of paper PMC5908809
